Measurements reported in EP4635500A1, “THERAPEUTIC AGENT FOR BACTERIAL INFECTION” (Sumitomo Pharma Co., Ltd., priority 2022, dated 2024).
Values after ≈ are worked out from the molar mass of the structure shown. Read-outs that look alike come from different tables or passages of the source.

Key:
A. baumannii = assay: MIC, broth microdilution, CDC/FDA Antibiotic Resistance Isolate Bank (Example 7, Tables 9, 13, 14); format: cell-based, Acinetobacter baumannii; conditions: for MIC: read-out: MIC
Enterobacterales = assay: MIC, broth microdilution, CDC/FDA Antibiotic Resistance Isolate Bank (Example 7, Tables 8, 11, 12); format: cell-based; conditions: for MIC: read-out: MIC
[1] = MIC distribution, metallo-β-lactamase-producing A. baumannii, inhibitor µg/mL in parentheses

O=C(O)c1cn(C2CC2)c2cc(N3CCNCC3)c(F)cc2c1=O [Ciprofloxacin, ciprofloxacin]
MIC (A. baumannii; Acinetobacter baumannii, A. baumannii KUB No. 5567, AR Bank #70, OXA-58, OXA-100): 8 µg/mL (≈ 24.1 µM)
MIC (A. baumannii; Acinetobacter baumannii, A. baumannii KUB No. 5575, AR Bank #78, OXA-71): > 64 µg/mL
MIC (A. baumannii; Acinetobacter baumannii, A. baumannii KUB No. 5598, AR Bank #101, OXA-24, OXA-65): > 64 µg/mL
MIC (A. baumannii; Acinetobacter baumannii, A. baumannii KUB No. 5706, AR Bank #273, OXA-23, OXA-66): > 64 µg/mL
MIC (A. baumannii; Acinetobacter baumannii, A. baumannii KUB No. 5707, AR Bank #274, OXA-66, OXA-72): > 64 µg/mL
MIC (A. baumannii; Acinetobacter baumannii, A. baumannii KUB No. 5710, AR Bank #277, OXA-24, OXA-65): > 64 µg/mL
MIC (A. baumannii; Acinetobacter baumannii, A. baumannii KUB No. 5713, AR Bank #280, OXA-66): > 64 µg/mL
MIC (A. baumannii; Acinetobacter baumannii, A. baumannii KUB No. 5718, AR Bank #285, OXA-24, OXA-65): > 64 µg/mL
MIC (A. baumannii; Acinetobacter baumannii, KUB No. 5721, AR Bank #288): > 64 µg/mL
MIC (A. baumannii; Acinetobacter baumannii, KUB No. 5722, AR Bank #259): > 64 µg/mL
MIC (A. baumannii; Acinetobacter baumannii, KUB No. 5724, AR Bank #291): > 64 µg/mL
MIC (A. baumannii; Acinetobacter baumannii, KUB No. 5727, AR Bank #294): > 64 µg/mL
MIC (A. baumannii; Acinetobacter baumannii, KUB No. 5728, AR Bank #295): > 64 µg/mL
MIC (A. baumannii; Acinetobacter baumannii, KUB No. 5729, AR Bank #296): > 64 µg/mL
MIC (A. baumannii; Acinetobacter baumannii, KUB No. 5730, AR Bank #297): > 64 µg/mL
MIC (A. baumannii; Acinetobacter baumannii, KUB No. 5732, AR Bank #299): > 64 µg/mL
MIC (A. baumannii; Acinetobacter baumannii, KUB No. 5733, AR Bank #300): > 64 µg/mL
MIC (A. baumannii; Acinetobacter baumannii, KUB No. 5734, AR Bank #301): > 64 µg/mL
MIC (A. baumannii; Acinetobacter baumannii, KUB No. 5735, AR Bank #302): > 64 µg/mL
MIC (A. baumannii; Acinetobacter baumannii, KUB No. 5737, AR Bank #304): > 64 µg/mL
MIC (A. baumannii; Acinetobacter baumannii, KUB No. 5738, AR Bank #305): > 64 µg/mL
MIC (A. baumannii; Acinetobacter baumannii, KUB No. 5739, AR Bank #306): > 64 µg/mL
MIC (A. baumannii; Acinetobacter baumannii, KUB No. 5741, AR Bank #308): > 64 µg/mL
MIC (A. baumannii; Acinetobacter baumannii, KUB No. 5742, AR Bank #309): > 64 µg/mL
MIC (A. baumannii; Acinetobacter baumannii, KUB No. 5743, AR Bank #310): > 64 µg/mL
MIC (A. baumannii; Acinetobacter baumannii, KUB No. 5745, AR Bank #312): 8 µg/mL (≈ 24.1 µM)
MIC80 (A. baumannii; Acinetobacter baumannii, 55 isolates of A. baumannii, read-out: MIC80): > 64 µg/mL
MIC90 (A. baumannii; Acinetobacter baumannii, 55 isolates of A. baumannii, read-out: MIC90): > 64 µg/mL
Number of isolates at MIC 16 µg/mL (A. baumannii; [1]): 1
Number of isolates at MIC 32 µg/mL (A. baumannii; [1]): 1
Number of isolates at MIC >32 µg/mL (A. baumannii; [1]): 1
Number of isolates at MIC >64 µg/mL (A. baumannii; [1]): 1
MIC80 (Enterobacterales; 154 strains of Enterobacterales, read-out: MIC80): > 64 µg/mL
MIC90 (Enterobacterales; 154 strains of Enterobacterales, read-out: MIC90): > 64 µg/mL
MIC (Enterobacterales; Citrobacter freundii, KUB No. 5654, AR Bank # 157): > 64 µg/mL
MIC (Enterobacterales; Escherichia coli, Escherichia coli KUB No. 5783, AR Bank #437): > 64 µg/mL
MIC (Enterobacterales; Escherichia coli, Escherichia coli KUB No. 5794, AR Bank #450): 0.06 µg/mL (≈ 0.181 µM)
MIC (Enterobacterales; Escherichia coli, Escherichia coli KUB No. 5796, AR Bank #452): > 64 µg/mL
MIC (Enterobacterales; Escherichia coli, KUB No. 5552, AR Bank# 55): > 64 µg/mL
MIC (Enterobacterales; Escherichia coli, KUB No. 5558, AR Bank # 61): ≤ 0.03 µg/mL
MIC (Enterobacterales; Escherichia coli, KUB No. 5564, AR Bank # 67): > 64 µg/mL
MIC (Enterobacterales; Escherichia coli, KUB No. 5566, AR Bank # 69): 0.06 µg/mL (≈ 0.181 µM)
MIC (Enterobacterales; Escherichia coli, KUB No. 5574, AR Bank # 77): ≤ 0.03 µg/mL
MIC (Enterobacterales; Escherichia coli, KUB No. 5582, AR Bank # 85): > 64 µg/mL
MIC (Enterobacterales; Escherichia coli, KUB No. 5586, AR Bank # 89): ≤ 0.03 µg/mL
MIC (Enterobacterales; Escherichia coli, KUB No. 5616, AR Bank # 119): > 64 µg/mL
MIC (Enterobacterales; Escherichia coli, KUB No. 5634, AR Bank # 137): > 64 µg/mL
MIC (Enterobacterales; Escherichia coli, KUB No. 5764, AR Bank # 368): ≤ 0.03 µg/mL
MIC (Enterobacterales; Escherichia coli, KUB No. 5765, AR Bank # 369): 0.06 µg/mL (≈ 0.181 µM)
MIC (Enterobacterales; Escherichia coli, KUB No. 5766, AR Bank # 370): > 64 µg/mL
MIC (Enterobacterales; Escherichia coli, KUB No. 5768, AR Bank # 372): > 64 µg/mL
MIC (Enterobacterales; Escherichia coli, KUB No. 5770, AR Bank # 374): > 64 µg/mL
MIC (Enterobacterales; Escherichia, KUB No. 57, AR Bank # 436 (row cut off)): > 64 µg/mL
MIC (Enterobacterales; Klebsiella aerogenes, Enterobacter aerogenes, KUB No. 5559, AR Bank # 62): 2 µg/mL (≈ 6.04 µM)
MIC (Enterobacterales; Klebsiella aerogenes, Enterobacter aerogenes, KUB No. 5571, AR Bank # 74): 0.06 µg/mL (≈ 0.181 µM)
MIC (Enterobacterales; Klebsiella aerogenes, Enterobacter aerogenes, KUB No. 5658, AR Bank # 161): 0.06 µg/mL (≈ 0.181 µM)
MIC (Enterobacterales; Klebsiella aerogenes, Enterobacter aerogenes, KUB No. 5777, AR Bank # 431): 1 µg/mL (≈ 3.02 µM)
MIC (Enterobacterales; Klebsiella oxytoca, KUB No. 5644, AR Bank # 147): ≤ 0.03 µg/mL
MIC (Enterobacterales; Klebsiella oxytoca, KUB No. 5771, AR Bank # 375): ≤ 0.03 µg/mL
